Test results taken from patent US12016314B2, “MicroRNA inhibitor therapy in systemic lupus erythematosus” (Ohio State Innovation Foundation, priority 2017, dated 2024).

How the values were obtained:
TLR8 = TLR8 mRNA expression in primary human macrophages incubated with autologous serum; assay type: cell-based; conditions: primary human macrophages of healthy donors, 24 h
Protocol: RNA was quantitated using a NanoDrop 1000 spectrophotometer (NanoDrop Products, Wilmington, DE). cDNA was synthesized using High Capacity cDNA Reverse Transcription Kit (Applied Biosystems, Foster City, CA) following the manufacturer's protocol and qPCR was performed using the TaqMan system (Applied Biosystems) using cDNA and gene specific primers in accordance with the manufacturer's protocol.
(§1) To target autologous EVs containing miR-21, primary human PBMCs were isolated from whole blood as indicated above, incubated in the presence of 20% autogolous serum, and treated with locked nucleic acid (LNA) sequences designed to antagonize miR-21 (Exiqon, Vedbaek, Denmark) following liposomal complexing with DOTAP (Roche) according to the manufacturer's protocol.

STAT1 = STAT1 mRNA transcript expression (qPCR) in hematopoietic cell lines THP-1 and K562; conditions: THP-1 cells, separate hormone treatments, normalized to untreated cells
THP-1 cells = assay: Nanoparticle tracking analysis of extracellular vesicle production by THP-1 cells; assay type: cell-based, human
Protocol: as §1
The NanoSight LM 10 system (NanoSight, Wiltshire, United Kingdom) was used to measure the rate of Brownian motion of particles to determine the size and quantification of EVs. Briefly, the sample was injected in a NanoSight cubicle and the size of particles was obtained by determining the motion in fluid passing across the chamber. The number of particles per milliliter was measured from a 0-160 nm range and was acquired from both experimental and control samples for comparison using area under the curve calculations obtained via the linear trapezoidal analysis method.

IL-13 = IL-13 secretion of THP-1 cells (ELISA); assay type: cell-based, human; conditions: 24 h
IL-12 = IL-12 secretion of THP-1 cells (ELISA); assay type: cell-based, human; conditions: 24 h

Molecule: CCN(CC)CCCC(C)Nc1ccnc2cc(Cl)ccc12 (centres unmarked) [Chloroquine, chloroquine]
- reduction of TLR8 mRNA expression relative to LNA-control (TLR8): over 95%

Molecule: LNA antagomiR-21: locked nucleic acid sequence designed to block miR-21, in liposomal complexes with DOTAP; CAACATCAGTCTGATAAGCT (LNA-modified, pattern not given here, delivered in liposomal complexes)
- reduction of TLR8 mRNA expression relative to LNA-control (TLR8): 46%

Molecule: C[C@]12CCC(=O)C[C@@H]1CC[C@@H]1[C@@H]2CC[C@]2(C)[C@@H](O)CC[C@@H]12 [dihydrotestosterone, 5α-androstatin-17β-ol-one]
- hormonal influence on STAT1 expression (STAT1): hormonal influence was only observed with estrogen treatment

Molecule: CC(=O)[C@H]1CC[C@H]2[C@@H]3CCC4=CC(=O)CC[C@]4(C)[C@H]3CC[C@]12C [progesterone]
- hormonal influence on STAT1 expression (STAT1): hormonal influence was only observed with estrogen treatment

Molecule: CCOCc1nc2c(N)nc3ccccc3c2n1CC(C)(C)O [R-848]
- cumulative extracellular particle profiles (0-160 nm, area under the curve) relative to miR-control (THP-1 cells): 3.7 fold
- IL-13 expression upregulated relative to miR-control pseudoexosomes (IL-13): 1.75 fold
- IL-12 expression induced compared to control treatment (IL-12): 5 fold

B1: prolactin: hormone prolactin (Sigma), 10 ng/mL (protein, UniProt P01236 29-227, looked up)
Prolactin: LPICPGGAARCQVTLRDLFDRAVVLSHYIHNLSSEMFSEFDKRYTHGRGFITKAINSCHTSSLATPEDKEQAQQMNQKDFLSLIVSILRSWNEPLYHLVTEVRGMQEAPEAILSKAVEIEEQTKRLLEGMELIVSQVHPETKENEIYPVWSGLPSLQMADEESRLSAYYNLLHCLRRDSHKIDNYLKLLKCRIIHNNNC
- hormonal influence on STAT1 expression (STAT1): hormonal influence was only observed with estrogen treatment
